Data published in ChEMBL document CHEMBL3734705, “Synthesis and in vitro cytotoxicity of novel C-12 substituted-14-deoxy-andrographolide derivatives as potent anti-cancer agents” (2015).

Tests used:
KM12 = assay: Cytotoxicity against human KM12 cells assessed as growth inhibition at 10 uM after 48 hrs by SRB assay; assay type: functional; settings: KM12, 48 h, read-out: GI
[1] = Cytotoxicity against human Hs578T cells after 48 hrs by SRB assay; assay type: functional; settings: Hs-578T
[2] = Cytotoxicity against human OVCAR3 cells assessed as growth level at 10 uM after 48 hrs by SRB assay; assay type: functional, OVCAR-3
[3] = Cytotoxicity against human SKOV3 cells assessed as growth level at 10 uM after 48 hrs by SRB assay; assay type: functional, SK-OV-3
MCF7 [4] = assay: Cytotoxicity against human MCF7 cells assessed as growth inhibition at 10 uM after 48 hrs by SRB assay; assay type: functional; settings: MCF7, 48 h, read-out: GI
[5] = Cytotoxicity against human HCT116 cells after 48 hrs by SRB assay; assay type: functional; settings: HCT-116, 48 h
[6] = Cytotoxicity against human RPMI8226 cells assessed as growth level at 10 uM after 48 hrs by SRB assay; assay type: functional, RPMI-8226
SR = assay: Cytotoxicity against human SR cells after 48 hrs by SRB assay; assay type: functional; settings: for CC50: read-out: LC50 (the source's name)
[7] = Cytotoxicity against human OVCAR5 cells assessed as growth level at 10 uM after 48 hrs by SRB assay; assay type: functional, OVCAR-5
[8] = Cytotoxicity against human TK10 cells assessed as growth inhibition at 10 uM after 48 hrs by SRB assay; assay type: functional; settings: TK-10, 48 h, read-out: GI
786-0 = assay: Cytotoxicity against human 786-0 cells assessed as growth inhibition at 10 uM after 48 hrs by SRB assay; assay type: functional; settings: 786-0, 48 h, read-out: GI
[9] = Cytotoxicity against human HCT15 cells assessed as growth level at 10 uM after 48 hrs by SRB assay; assay type: functional, HCT-15
[10] = Cytotoxicity against human HCT116 cells assessed as growth inhibition at 10 uM after 48 hrs by SRB assay; assay type: functional; settings: HCT-116, 48 h, read-out: GI
[11] = Cytotoxicity against human UACC257 cells assessed as growth level at 10 uM after 48 hrs by SRB assay; assay type: functional, UACC-257
[12] = Cytotoxicity against human UACC62 cells assessed as growth inhibition at 10 uM after 48 hrs by SRB assay; assay type: functional; settings: UACC-62, 48 h, read-out: GI
[13] = Cytotoxicity against human SF539 cells assessed as growth level at 10 uM after 48 hrs by SRB assay; assay type: functional, SF-539
[14] = Cytotoxicity against human IGROV1 cells assessed as growth level at 10 uM after 48 hrs by SRB assay; assay type: functional, IGROV-1
[15] = Cytotoxicity against human UACC257 cells after 48 hrs by SRB assay; assay type: functional; settings: UACC-257, 48 h
K562 [16] = assay: Cytotoxicity against human K562 cells assessed as growth level at 10 uM after 48 hrs by SRB assay; assay type: functional
NCI-H460 = assay: Cytotoxicity against human NCI-H460 cells assessed as growth level at 10 uM after 48 hrs by SRB assay; assay type: functional
M14 = assay: Cytotoxicity against human M14 cells assessed as growth inhibition at 10 uM after 48 hrs by SRB assay; assay type: functional; settings: M14, 48 h, read-out: GI
NCI-H522 [17] = assay: Cytotoxicity against human NCI-H522 cells assessed as growth level at 10 uM after 48 hrs by SRB assay; assay type: functional
K562 [18] = assay: Cytotoxicity against human K562 cells after 48 hrs by SRB assay; assay type: functional; settings: K562, 48 h
[19] = Cytotoxicity against human LOXIMVI cells assessed as growth inhibition at 10 uM after 48 hrs by SRB assay; assay type: functional; settings: LOX IMVI, read-out: GI
[20] = Cytotoxicity against human BT549 cells assessed as growth inhibition at 10 uM after 48 hrs by SRB assay; assay type: functional; settings: BT-549, 48 h, read-out: GI
CCRF-CEM = assay: Cytotoxicity against human CCRF-CEM cells after 48 hrs by SRB assay; assay type: functional; settings: for CC50: read-out: LC50 (the source's name)
SK-MEL-5 = assay: Cytotoxicity against human SK-MEL-5 cells after 48 hrs by SRB assay; assay type: functional; settings: SK-MEL-5, 48 h
NCI-H226 = assay: Cytotoxicity against human NCI-H226 cells assessed as growth inhibition at 10 uM after 48 hrs by SRB assay; assay type: functional; settings: NCI-H226, 48 h, read-out: GI
A498 = assay: Cytotoxicity against human A498 cells after 48 hrs by SRB assay; assay type: functional; settings: A498, 48 h; for CC50: read-out: LC50 (the source's name)
[21] = Cytotoxicity against human OVCAR5 cells assessed as growth inhibition at 10 uM after 48 hrs by SRB assay; assay type: functional; settings: OVCAR-5, 48 h, read-out: GI
[22] = Cytotoxicity against human RXF393 cells assessed as growth level at 10 uM after 48 hrs by SRB assay; assay type: functional, RXF 393
[23] = Cytotoxicity against human SF268 cells assessed as growth level at 10 uM after 48 hrs by SRB assay; assay type: functional, SF-268
[24] = Cytotoxicity against human TK10 cells assessed as growth level at 10 uM after 48 hrs by SRB assay; assay type: functional, TK-10
NCI-H522 [25] = assay: Cytotoxicity against human NCI-H522 cells assessed as growth inhibition at 10 uM after 48 hrs by SRB assay; assay type: functional; settings: NCI-H522, 48 h, read-out: GI
MDA-MB-435 = assay: Cytotoxicity against human MDA-MB-435 cells assessed as growth level at 10 uM after 48 hrs by SRB assay; assay type: functional
ACHN = assay: Cytotoxicity against human ACHN cells after 48 hrs by SRB assay; assay type: functional
[26] = Cytotoxicity against human UACC62 cells after 48 hrs by SRB assay; assay type: functional; settings: UACC-62, 48 h
NCI-H322M = assay: Cytotoxicity against human NCI-H322M cells after 48 hrs by SRB assay; assay type: functional
MCF7 [27] = assay: Cytotoxicity against human MCF7 cells assessed as growth level at 10 uM after 48 hrs by SRB assay; assay type: functional

C=C1CC[C@@H]2[C@](C)(COC(C)=O)[C@H](OC(C)=O)CC[C@@]2(C)[C@@H]1C/C=C1/C(=O)OC[C@H]1OC(C)=O
inhibition of growth at 10 µM (KM12): 47.2%
GI50 [1]: 12.3 µM
LC50 (concentration killing 50% of cells) [1]: > 100 µM
TGI [1]: 55.4 µM
Activity [2]: -21.32%
Activity [3]: 101.37%
inhibition of growth at 10 µM (MCF7 [4]): 77.1%
GI50 [5]: 1.45 µM
LC50 (concentration killing 50% of cells) [5]: 6.15 µM
TGI [5]: 2.98 µM
Activity [6]: 14.12%
GI50 (SR): 2.59 µM
TGI (SR): 10.1 µM
CC50 (SR): > 100 µM
Activity [7]: 53.7%
inhibition of growth at 10 µM [8]: 83.1%
inhibition of growth at 10 µM (786-0): 10.9%
Activity [9]: -23.04%
inhibition of growth at 10 µM [10]: 37.3%
Activity [11]: 66.52%
inhibition of growth at 10 µM [12]: 70.3%
Activity [13]: 8.54%
Activity [14]: 102.65%
GI50 [15]: 6.2 µM
LC50 (concentration killing 50% of cells) [15]: 53.2 µM
TGI [15]: 19.9 µM
Activity (K562 [16]): 11.07%
Activity (NCI-H460): 98.04%
inhibition of growth at 10 µM (M14): 64.6%
Activity (NCI-H522 [17]): -41.64%
GI50 (K562 [18]): 2.63 µM
LC50 (50% lethal concentration) (K562 [18]): > 100 µM
TGI (K562 [18]): 32.1 µM
inhibition of growth at 10 µM [19]: 74.4%
inhibition of growth at 10 µM [20]: 72.6%
GI50 (CCRF-CEM): 1.12 µM
TGI (CCRF-CEM): 5.32 µM
CC50 (CCRF-CEM): > 100 µM
GI50 (SK-MEL-5): 9.5 µM
LC50 (concentration killing 50% of cells) (SK-MEL-5): 51 µM
TGI (SK-MEL-5): 22.4 µM
inhibition of growth at 10 µM (NCI-H226): 76.4%
GI50 (A498): 14.4 µM
TGI (A498): 27.5 µM
CC50 (A498): 52.6 µM
inhibition of growth at 10 µM [21]: 46.3%
Activity [22]: -7.35%
Activity [23]: 87.06%
Activity [24]: 16.88%
inhibition of growth at 10 µM (NCI-H522 [25]): 41.6%
Activity (MDA-MB-435): 33.07%
GI50 (ACHN): 1.71 µM
LC50 (ACHN): 6.06 µM
TGI (ACHN): 3.22 µM
GI50 [26]: 3.37 µM
LC50 [26]: 40.7 µM
TGI [26]: 13.5 µM
GI50 (NCI-H322M): 16 µM
LC50 (NCI-H322M): 55.3 µM
TGI (NCI-H322M): 29.7 µM
Activity (MCF7 [27]): 22.9%

C=C1CC[C@@H]2[C@](C)(COC(C)=O)[C@H](OC(C)=O)CC[C@@]2(C)[C@@H]1CC(Sc1ccccc1)C1=CCOC1=O (mixture of isomers)
GI50 [1]: 4.89 µM
LC50 (concentration killing 50% of cells) [1]: > 100 µM
TGI [1]: 63.3 µM
Activity [2]: -84.17%
Activity [3]: 57.71%
GI50 [5]: 0.85 µM
LC50 (concentration killing 50% of cells) [5]: 5.03 µM
TGI [5]: 2.18 µM
Activity [6]: -4.72%
GI50 (SR): 0.55 µM
TGI (SR): 3.66 µM
CC50 (SR): > 100 µM
Activity [7]: 39.82%
Activity [9]: -38.36%
Activity [11]: 29.37%
Activity [13]: -43.56%
Activity [14]: 25.2%
GI50 [15]: 1.91 µM
LC50 (concentration killing 50% of cells) [15]: 7.2 µM
TGI [15]: 3.71 µM
Activity (K562 [16]): 3.95%
Activity (NCI-H460): 21.71%
Activity (NCI-H522 [17]): -80.61%
GI50 (K562 [18]): 0.69 µM
LC50 (50% lethal concentration) (K562 [18]): 45.7 µM
TGI (K562 [18]): 3.69 µM
GI50 (CCRF-CEM): 0.26 µM
TGI (CCRF-CEM): 1.19 µM
CC50 (CCRF-CEM): > 100 µM
GI50 (SK-MEL-5): 1.42 µM
LC50 (concentration killing 50% of cells) (SK-MEL-5): 5.6 µM
TGI (SK-MEL-5): 2.82 µM
GI50 (A498): 2.3 µM
TGI (A498): 14 µM
CC50 (A498): 59.2 µM
Activity [22]: 5.01%
Activity [23]: 11.62%
Activity [24]: 11.37%
Activity (MDA-MB-435): 101.38%
GI50 (ACHN): 1.34 µM
LC50 (ACHN): 6.01 µM
TGI (ACHN): 2.84 µM
GI50 [26]: 1.3 µM
LC50 [26]: 8.07 µM
TGI [26]: 3.24 µM
GI50 (NCI-H322M): 2.93 µM
LC50 (NCI-H322M): > 100 µM
TGI (NCI-H322M): 10.4 µM
Activity (MCF7 [27]): 2.14%
